From patent publication US5789434A, “Derivatives of substituted 4-biarylbutyric acid as matrix metalloprotease inhibitors” (priority 1995, dated 1998)

How the values were obtained:
[1] = tested on: inflammation; conditions: R. G. Child et al. 1977; cited from earlier work
[2] = target: T1, MMP-9 (Homo sapiens, UniProt P14780); test: Automated MMP Profiling Assay, MMP-9 fluorogenic; type: biochemical; conditions: 96-well automated, P218
T1 construct: from tissue; host or cells: human polymorphonuclear leukocytes (PMN) from whole blood (New York Blood Center), PMA-stimulated supernatant
T1 sequence (P14780 107-707 limits assumed): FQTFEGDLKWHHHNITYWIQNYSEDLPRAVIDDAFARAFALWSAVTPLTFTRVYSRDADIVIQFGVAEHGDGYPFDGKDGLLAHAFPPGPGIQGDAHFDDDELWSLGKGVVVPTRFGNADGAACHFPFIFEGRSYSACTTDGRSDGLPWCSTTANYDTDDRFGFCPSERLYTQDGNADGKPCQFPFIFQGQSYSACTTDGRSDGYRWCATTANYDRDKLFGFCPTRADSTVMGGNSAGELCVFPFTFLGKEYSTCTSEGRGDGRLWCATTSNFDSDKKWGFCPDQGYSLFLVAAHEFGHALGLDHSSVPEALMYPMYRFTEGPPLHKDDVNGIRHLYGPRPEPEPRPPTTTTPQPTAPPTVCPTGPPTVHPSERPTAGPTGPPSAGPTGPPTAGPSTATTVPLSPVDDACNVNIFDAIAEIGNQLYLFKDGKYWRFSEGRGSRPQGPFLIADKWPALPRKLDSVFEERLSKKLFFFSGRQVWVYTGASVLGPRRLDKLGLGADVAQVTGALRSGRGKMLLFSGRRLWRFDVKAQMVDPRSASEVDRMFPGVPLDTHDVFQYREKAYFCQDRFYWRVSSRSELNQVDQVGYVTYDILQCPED

[3] = target: T2, MMP-3 (Homo sapiens, UniProt P08254); test: Automated MMP Profiling Assay, MMP-3 fluorogenic; type: biochemical; conditions: 96-well automated, P218
T2 construct: Truncated Prostromelysin-257 was expressed in a soluble form in E.coli; made in house; host or cells: E. coli
T2 sequence (P08254 100-274 limits assumed): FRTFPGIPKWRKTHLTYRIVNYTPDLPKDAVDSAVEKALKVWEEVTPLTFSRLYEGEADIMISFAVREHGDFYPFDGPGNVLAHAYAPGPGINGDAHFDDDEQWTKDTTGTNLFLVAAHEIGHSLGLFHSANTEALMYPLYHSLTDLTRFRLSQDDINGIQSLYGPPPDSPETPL
Source text: This assay with each invention compound was run with the three enzymes MMP-3, MMP-9 and MMP-2 in parallel as adapted for a 96-well microtitre plate using a Hamilton A® workstation.

[4] = tested on: Femoral Lesion; test: Inhibition of Cartilage Lesions in a Guinea Pig Model of Osteoarthritis; type: in vivo; conditions: 15 mg/kg oral gavage daily, 33 days, vs vehicle
Description: Pathol. 1987 24, 444-448. Seven of the invention compounds were dissolved at 15 mg/ml in a vehicle of 10 mg/ml Tween 80, 190 mg/ml PEG and 0.44 mg/ml ethanolamine. This concentrate was diluted 1:1 with water before dosing (final concentration 7.5 mg/ml). On the 5th day before surgery, each animal received either a test compound plus vehicle or vehicle only administered by oral gavage each day at 15 mg/kg (2 ml/kg) up to surgery and then for four weeks post surgery (total 33 days of dosing). At the beginning of dosing and twice weekly thereafter the animals were weighed and the dose of the respective compounds or vehicles were calculated and adjusted if necessary. At the conclusion of the study the animals were euthanized by CO2 asphyxiation and their stifles removed, partially dissected and placed in 10% neutral buffered formalin. The extent of lesion development on the femoral head was measured by computer assisted surface area analysis.

[5] = target: T3, MMP-2 (Homo sapiens, UniProt P08253); test: Automated MMP Profiling Assay, MMP-2 fluorogenic; type: biochemical; conditions: 96-well automated, P218; read-out: MMP-2 Fluorogenic IC50 (profiling)
T3 sequence (P08253 110-660): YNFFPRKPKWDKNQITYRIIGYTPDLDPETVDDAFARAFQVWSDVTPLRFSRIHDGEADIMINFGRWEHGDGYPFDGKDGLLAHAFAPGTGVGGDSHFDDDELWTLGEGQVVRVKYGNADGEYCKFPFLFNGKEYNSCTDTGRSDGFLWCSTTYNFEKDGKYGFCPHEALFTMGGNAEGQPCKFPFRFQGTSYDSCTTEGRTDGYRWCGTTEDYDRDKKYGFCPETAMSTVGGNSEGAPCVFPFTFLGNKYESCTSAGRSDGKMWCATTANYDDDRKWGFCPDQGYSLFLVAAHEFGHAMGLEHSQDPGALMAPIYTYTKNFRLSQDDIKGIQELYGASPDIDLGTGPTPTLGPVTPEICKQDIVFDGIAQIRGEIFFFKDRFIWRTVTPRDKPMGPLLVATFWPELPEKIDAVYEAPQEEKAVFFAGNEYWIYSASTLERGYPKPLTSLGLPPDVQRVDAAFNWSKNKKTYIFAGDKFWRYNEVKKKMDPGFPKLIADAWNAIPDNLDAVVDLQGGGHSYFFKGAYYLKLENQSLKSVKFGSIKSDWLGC

[6] = tested on: human colon tumor; conditions: intraperitoneally; cited from earlier work
[7] = tested on: human ovarian carcinoma xenografts; conditions: mouse, in vivo; cited from earlier work
[8] = target: T1, MMP-9; test: Thiopeptilide MMP-9 Inhibition Assay; type: biochemical
[9] = target: T3, MMP-2; test: Secondary P218 Quenched fluorescence Assay for MMP-2 Inhibition; type: biochemical; conditions: P218 substrate, 0.2 nM enzyme; x (n) = average of n determinations; read-out: MMP-2 Fluorogenic IC50
[10] = tested on: MMP; test: MMP inhibitory activity, comparison in words; type: biochemical
[11] = target: T2, MMP-3; test: Primary Thiopeptilide MMP-3 Inhibition Assay; type: biochemical; conditions: pH 6.5; 13 nM stromelysin; x (n) = average of n determinations; read-out: MMP-3 Thiopep. IC50
Description: Enzyme: recombinant stromelysin expressed in E.coli and purified as described above. […] The protocols for the assay of compounds as stromelysin inhibitors was the same as that used for MMP-9 except that the assay buffer was 50 mM MES, pH 6.5 containing 150 mM NaCl, 10 mM CaCl2, 0.005% Brij, and 1% DMSO.

[12] = target: T2, MMP-3; test: Secondary P218 Quenched fluorescence Assay for MMP-3 Inhibition; type: biochemical; conditions: P218 substrate, pH 6.5, 25° C.; x (n) = average of n determinations; read-out: MMP-3 Fluorogenic IC50
Description: Truncated Prostromelysin-257 was expressed in a soluble form in E.coli as described by Marcy et al., Biochemistry, 30, 6476-6483, 1991. Soluble truncated prostromelysin was purified by a modification of the monoclonal antibody affinity chromatography method described by Housley et al., J. Biol. Chem., 268, 4481-87, 1993.
The assay is run continuously in a 3.0 ml cuvette using a Perkin-Elmer LS 50 B Spectrofluorimeter at 25° C. in a final volume of 2.0 mls. P218 substrate (10 mM) in 100% DMSO is diluted to a final concentration of 2.0 micromolar (μM) into assay buffer: 50 mM MES, pH 6.5 containing 150 mM NaCl, 10 mM CaCl2, 0.005% Brij-35, and 1%(v/v) DMSO. Test compounds(10 mM) in DMSO are diluted in assay buffer at an initial concentration of 10 to 100 micromolar. […] The reaction is initiated by the addition of recombinant stromelysin (MMP-3) at a final concentration of 1.0 nM. Upon peptide cleavage, the fluorescent MCA group was detected using an excitation wavelength of 328 nanometers and an emission wavelength of 393 nanometers.

Structure (SMILES) | IC50 [2] [nM] | IC50 [3] [nM] | % Inhibition of Femoral Lesion Surface Area [4] [%] | IC50 [5] [nM] | also measured
O=C(CC(C(=O)O)c1ccccc1)c1ccc(-c2ccccc2)cc1 (centres unmarked) [XLIV] | – | – | – | – | anti-inflammatory activity (literature) [1]: inactive
O=C(C[C@H](CCCc1ccccc1)C(=O)O)c1ccc(-c2ccc(OCc3ccccc3)cc2)cc1 [Example 100, 4-[4-(4-benzyloxyphenyl)phenyl]-4-oxo-2S-(3-phenylpropyl)butanoic acid] | 3220 | 17 | 37.8 | 14 | –
CNC(=O)[C@H](Cc1ccccc1)NC(=O)[C@H](CC(C)C)[C@H](CSc1cccs1)C(=O)NO [batimastat] | – | – | – | – | human colon tumor growth and spread [6]: inhibits human colon tumor growth and spread; survival of mice bearing human ovarian carcinoma xenografts [7]: prolongs the survival
O=C(C[C@H](CSc1ccccc1)C(=O)O)c1ccc(-c2ccc(Cl)cc2)cc1 [Example 197, 4-[4-(4-chlorophenyl)phenyl]-4-oxo-2S-(phenylthiomethyl)butanoic acid] | – | – | 18 | 22 | IC50 ([8]; pH 6.5, x (n) = average of n determinations, read-out: MMP-9: Thiopep. IC50): 197 nM; IC50 [9]: 26 nM
CC(CC(=O)c1ccc(-c2ccccc2)cc1)C(=O)O (centres unmarked) [XLVIII] | – | – | – | – | anti-inflammatory activity (literature) [1]: inactive
O=C(O)CCC(=O)c1ccc(-c2ccccc2)cc1 [fenbufen, 3-biphenoylpropanoic acid, reference compound] | – | – | – | – | MMP inhibitory activity (in words) [10]: Only minor activity, at best; inhibition at 5 µM ([8]; read-out: MMP-9: Thiopep. % inhibition): 2%; IC50 [9]: 1000 nM
O=C(CC(CCCc1ccccc1)C(=O)O)c1ccc(-c2ccccc2)cc1 (centres unmarked) [Example 135] | – | – | – | – | MMP inhibitory activity (in words) [10]: low potency; IC50 [11]: 2800 nM; IC50 [12]: 2800 nM
O=C(C[C@H](CCCc1ccccc1)C(=O)O)c1ccc(-c2ccc(Cl)cc2)cc1 [Example 116, 4-[4-(4-chlorophenyl)phenyl]-4-oxo-2S-(3-phenylpropyl)butanoic acid] | 185 | 137 | 0 | 38 | –
O=C(O)CC(C(=O)c1ccc(-c2ccccc2)cc1)c1ccccc1 (centres unmarked) [LXXVII] | – | – | – | – | anti-inflammatory activity (literature) [1]: inactive
COC(=O)c1ccccc1S[C@H]1CC[C@H](C(=O)c2ccc(-c3ccc(Cl)cc3)cc2)[C@H]1C(=O)O [Example 299, (1S,2S,5S)-trans-5-[4-(4-chlorophenyl)phenylcarbonyl]-cis-2-(2-methoxycarbonylphenylthio)cyclopentanecarboxylic acid] | 531 | 58 | 28 | 52 | –
O=C(C[C@H](CCN1C(=O)c2ccccc2C1=O)C(=O)O)c1ccc(-c2ccc(Cl)cc2)cc1 [Example 268, 4-[4-(4-chlorophenyl)phenyl]-4-oxo-2S-(2-phthalimidoethyl)butanoic acid] | 1.15 | 5.73 | 53 | 0.91 | MMP inhibitory activity (in words) [10]: most active
CCN(CC)C(=O)c1cccc(CC[C@@H](CC(=O)c2ccc(-c3ccc(Cl)cc3)cc2)C(=O)O)c1 [Example 145, 4-[4-(4-chlorophenyl)phenyl]-4-oxo-2S-[2-(3-N,N-diethylcarbamoyl)phenyl]butanoic acid] | 19 | 7.5 | 46.4 | 2.1 | –
O=C(O)[C@@H]1[C@@H](C(=O)c2ccc(-c3ccc(Cl)cc3)cc2)CC[C@H]1Sc1ccccc1 [Example 296, (1S,2R,5S)-trans-5-[4-(4-chlorophenyl)phenylcarbonyl]-trans-2-phenylthiocyclopentanecarboxylic acid] | 111 | 44 | 31 | 6.4 | –
CCCCCOc1ccc(-c2ccc(C(=O)C[C@H](CCCc3ccccc3)C(=O)O)cc2)cc1 [Example 86, 4-[4-(4-pentyloxyphenyl)phenyl]-4-oxo-2S-(3-phenylpropyl)butanoic acid] | 442 | 51 | 0 | 12.5 | –
